# Experimental data taken from ChEMBL document CHEMBL5728637, “Pyrazolopyrimidine derivatives, preparation method thereof, and pharmaceutical composition for use in preventing or treating cancer, autoimmune disease and brain disease containing the same as an active ingredient” (2021).
# Biological target: Tyrosine-protein kinase BTK (Homo sapiens, UniProt Q06187)
# Assay: Inhibitory Assay: BTK enzyme evaluation with each compound of examples of the invention was performed by using BTK enzyme inhibition diagnosis kit (Cisbio, Codolet, France). ATP (adenosine triphosphate), BTK, peptide (biotin-Aca-[…]-NH2) and each compound of examples of the invention were mixed, followed by reaction for 30 minutes. Then, EDTA (ethylenediaminetetraacetic acid) was added thereto in order to terminate the reaction. At this time, the EDTA solution contained curopium-containing antibody (antiphosphoresidue antibody) and straptavidin-XL665 (SA-XL665, Cisbio). After incubation for 1 hour, fluorescence was measured. The emission values of 665 nm and 620 nm excited at 337 nm were measured with Envision reader.
# Sequence of Tyrosine-protein kinase BTK (Q06187 whole entry): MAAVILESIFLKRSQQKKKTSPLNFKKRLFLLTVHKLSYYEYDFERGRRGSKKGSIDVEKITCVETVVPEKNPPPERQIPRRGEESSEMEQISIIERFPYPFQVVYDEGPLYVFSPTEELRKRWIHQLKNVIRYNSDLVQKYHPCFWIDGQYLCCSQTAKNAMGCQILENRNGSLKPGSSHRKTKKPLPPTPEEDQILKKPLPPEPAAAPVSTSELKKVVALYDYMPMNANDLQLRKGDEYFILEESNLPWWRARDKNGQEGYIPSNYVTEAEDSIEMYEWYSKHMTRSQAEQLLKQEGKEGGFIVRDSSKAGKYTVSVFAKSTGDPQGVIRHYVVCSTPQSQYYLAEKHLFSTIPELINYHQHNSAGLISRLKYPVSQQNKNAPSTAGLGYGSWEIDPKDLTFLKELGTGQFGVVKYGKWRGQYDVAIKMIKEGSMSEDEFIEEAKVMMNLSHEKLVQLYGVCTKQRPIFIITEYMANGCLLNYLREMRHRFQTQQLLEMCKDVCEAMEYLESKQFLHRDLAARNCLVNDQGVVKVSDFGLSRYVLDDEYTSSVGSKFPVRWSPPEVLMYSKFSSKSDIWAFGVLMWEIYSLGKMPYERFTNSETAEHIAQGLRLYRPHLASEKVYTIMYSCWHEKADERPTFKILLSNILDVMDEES
row,IC50 [nM],Structure (SMILES)
1,26.7,Cc1ccc(NC(=O)Nc2cccc(C(F)(F)F)c2)cc1Nc1nn(C)c2nc(Nc3ccc4c(c3)CNCC4)ncc12
2,0.3,Cc1cccc(C)c1Nc1n[nH]c2nc(Nc3ccc4c(c3)CNCC4)ncc12
3,0.67,Cn1nc(Nc2c(Cl)cccc2Cl)c2cnc(Nc3ccc4c(c3)CCNC4)nc21
4,0.6,Cc1cccc(C)c1Nc1nn(C)c2nc(Nc3ccc4c(c3)CNCC4)ncc12
